Data taken from US9540343B2 (Gilead Sciences, Inc., priority 2011, dated 2017).

How the values were obtained:
[1] = in vitro
Procedure, shortened: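 Cytoprotection read-out: CellTiter-Glo chemiluminescence after 5 days at 37 °C of HIV-IIIb-infected MT-4 cells (m.o.i. 0.003) with compound in 10-point 3-fold dilutions, quadruplicate, 10% FBS. Cytotoxicity (CC50) measured identically without virus.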

[2] = test system: HIV-IIIb; assay: Test A: Antiviral assay in MT4 cells; assay type: cell-based, HIV-1; conditions: Human immunodeficiency virus 1, IIIB, MT4, 120 h, read-out: % inhibition at 2 μM, percent inhibition of virus-induced cell killing, from dose response curve at 2 uM drug; MT-4 cells infected with HIV-IIIb, 5 days, CellTiter-Glo
[3] = human, uninfected MT-4 cells, CC50 (nM), same protocol as Test A, CellTiter-Glo

| SMILES | CC50 at 5 days [1, 3] [nM] | inhibition at 2 µM [2] [%] | CC50 at 5 days ([1]; human, CC50 (nM), uninfected MT-4 cells, same protocol as Test A, CellTiter-Glo) [nM] |
| --- | --- | --- | --- |
| COc1ccc2c(c1)C(CC(=O)N[C@@H](Cc1cc(F)cc(F)c1)c1ncccc1-c1ccc(F)c(C(N)=O)c1)C(=O)N2 (stereo partly drawn) [Example 202, 5-(2-((1S)-2-(3,5-difluorophenyl)-1-(2-(5-methoxy-2-oxoindolin-3-yl)acetamido)ethyl)pyridin-3-yl)-2-fluorobenzamide] | > 53200 | 1 | – |
| NC(=O)c1cc(-c2cccnc2[C@H](Cc2cc(F)cc(F)c2)NC(=O)Cn2nc3c(c2C(F)(F)F)COC3)ccc1F [Example 203D, (S)-5-(2-(2-(3,5-difluorophenyl)-1-(2-(3-(trifluoromethyl)-4,6-dihydro-2H-furo[3,4-c]pyrazol-2-yl)acetamido)ethyl)pyridin-3-yl)-2-fluorobenzamide] | > 53200 | 0 | – |
| NC(=O)c1cc(-c2cccnc2[C@H](Cc2cccc(F)c2)NC(=O)Cn2nc(C(F)(F)F)c3c2CCS(=O)(=O)C3)ccc1F [Example 204, (S)-5-(2-(1-(2-(5,5-dioxido-3-(trifluoromethyl)-6,7-dihydrothiopyrano[4,3-c]pyrazol-1(4H)-yl)acetamido)-2-(3-fluorophenyl)ethyl)pyridin-3-yl)-2-fluorobenzamide] | > 53200 | 1 | – |
| Cc1cc(C)c2c(c1)C(CC(=O)N[C@@H](Cc1cc(F)cc(F)c1)c1ncccc1-c1ccc(F)c(C(N)=O)c1)C(=O)N2 (stereo partly drawn) [Example 205, 5-(2-((1S)-2-(3,5-difluorophenyl)-1-(2-(5,7-dimethyl-2-oxoindolin-3-yl)acetamido)ethyl)pyridin-3-yl)-2-fluorobenzamide] | 13100 | 12 | – |
| O=C(Cn1nc(C(F)F)c2c1C(F)(F)C1CC21)N[C@@H](Cc1cc(F)cc(F)c1)c1ncccc1-c1ccc(OCC2CC2)cc1 (stereo partly drawn) [Example 206, N—((S)-1-(3-(4-(cyclopropylmethoxy)phenyl)pyridin-2-yl)-2-(3,5-difluorophenyl)ethyl)-2-(3-(difluoromethyl)-5,5-difluoro-3b,4,4a,5-tetrahydro-1H-cyclopropa[3,4]cyclopenta[1,2-c]pyrazol-1-yl)acetamide] | 20000 | 54 | – |
| CC(C)Cc1cc(C(F)(F)F)nn1CC(=O)N[C@@H](Cc1cc(F)cc(F)c1)c1ncccc1-c1ccc(F)c(C(N)=O)c1 [Example 207C, (S)-5-(2-(2-(3,5-difluorophenyl)-1-(2-(5-isobutyl-3-(trifluoromethyl)-1H-pyrazol-1-yl)acetamido)ethyl)pyridin-3-yl)-2-fluorobenzamide] | 13200 | 16 | – |
| COCc1cc(C(F)(F)F)nn1CC(=O)N[C@@H](Cc1cc(F)cc(F)c1)c1ncccc1-c1ccc(F)c(C(N)=O)c1 [Example 208D] | – | 2 | > 53200 |
| NC(=O)c1cc(-c2cccnc2[C@H](Cc2cc(F)cc(F)c2)NC(=O)Cn2nc(C(N)=O)c3c2CC2CC32)ccc1F (stereo partly drawn) [Example 209, 1-(2-(((S)-1-(3-(3-carbamoyl-4-fluorophenyl)pyridin-2-yl)-2-(3,5-difluorophenyl)ethyl)amino)-2-oxoethyl)-3b,4,4a,5-tetrahydro-1H-cyclopropa[3,4]cyclopenta[1,2-c]pyrazole-3-carboxamide] | > 53200 | 51 | – |
| CN1Cc2nn(CC(=O)N[C@@H](Cc3cc(F)cc(F)c3)c3ncccc3-c3ccc(F)c(C(N)=O)c3)c(C(F)(F)F)c2C1 [Example 210, (S)-5-(2-(2-(3,5-difluorophenyl)-1-(2-(5-methyl-3-(trifluoromethyl)-5,6-dihydropyrrolo[3,4-c]pyrazol-2(4H)-yl)acetamido)ethyl)pyridin-3-yl)-2-fluorobenzamide] | > 53200 | 0 | – |
| N#Cc1nn(CC(=O)N[C@@H](Cc2cc(F)cc(F)c2)c2ncccc2-c2ccc(F)c(C(N)=O)c2)c2c1CCC2 [Example 211C, (S)-5-(2-(1-(2-(3-cyano-5,6-dihydrocyclopenta[c]pyrazol-1(4H)-yl)acetamido)-2-(3,5-difluorophenyl)ethyl)pyridin-3-yl)-2-fluorobenzamide] | 36100 | 83 | – |
| NC(=O)c1cc(-c2cccnc2[C@H](Cc2cc(F)cc(F)c2)NC(=O)Cn2nc(C(F)F)c3c2C(O)C2CC32)ccc1F (stereo partly drawn) [Example 212, 5-(2-((1S)-1-(2-(3-(difluoromethyl)-5-hydroxy-3b,4,4a,5-tetrahydro-1H-cyclopropa[3,4]cyclopenta[1,2-c]pyrazol-1-yl)acetamido)-2-(3,5-difluorophenyl)ethyl)pyridin-3-yl)-2-fluorobenzamide] | > 53200 | 69 | – |
| NC(=O)c1cc(-c2cccnc2[C@H](Cc2cccc(F)c2)NC(=O)Cn2nc(C(F)(F)F)c3ccccc32)ccc1F [Example 213C, (S)-2-fluoro-5-(2-(2-(3-fluorophenyl)-1-(2-(3-(trifluoromethyl)-1H-indazol-1-yl)acetamido)ethyl)pyridin-3-yl)benzamide] | 15900 | 14 | – |
| NC(=O)c1cc(-c2cccnc2[C@H](Cc2cc(F)cc(F)c2)NC(=O)Cc2cccc3ccccc23)ccc1F [Example 214, (S)-5-(2-(2-(3,5-difluorophenyl)-1-(2-(naphthalen-1-yl)acetamido)ethyl)pyridin-3-yl)-2-fluorobenzamide] | 22200 | 8 | – |
| COCCOc1ccc(-c2cccnc2[C@H](Cc2cc(F)cc(F)c2)NC(=O)Cn2nc(C(F)F)c3c2C(F)(F)C2CC32)cc1 (stereo partly drawn) [Example 217, 2-(3-(difluoromethyl)-5,5-difluoro-3b,4,4a,5-tetrahydro-1H-cyclopropa[3,4]cyclopenta[1,2-c]pyrazol-1-yl)-N—((S)-2-(3,5-difluorophenyl)-1-(3-(4-(2-methoxyethoxy)phenyl)pyridin-2-yl)ethyl)acetamide] | 29600 | 92 | – |
| NC(=O)c1cc(-c2ccc[n+]([O-])c2[C@H](Cc2cc(F)cc(F)c2)NC(=O)Cn2nc(C(F)(F)F)c3c2CS(=O)(=O)C3)ccc1F [Example 218, (S)-3-(3-carbamoyl-4-fluorophenyl)-2-(2-(3,5-difluorophenyl)-1-(2-(5,5-dioxido-3-(trifluoromethyl)-4,6-dihydro-1H-thieno[3,4-c]pyrazol-1-yl)acetamido)ethyl)pyridine 1-oxide] | > 53200 | 0 | – |
| CC(=O)N1Cc2c(C(F)(F)F)nn(CC(=O)N[C@@H](Cc3cc(F)cc(F)c3)c3ncccc3-c3ccc(F)c(C(N)=O)c3)c2C1 [Example 219, (S)-5-(2-(1-(2-(5-acetyl-3-(trifluoromethyl)-5,6-dihydropyrrolo[3,4-c]pyrazol-1(4H)-yl)acetamido)-2-(3,5-difluorophenyl)ethyl)pyridin-3-yl)-2-fluorobenzamide] | > 53200 | 1 | – |
| NC(=O)c1cc(-c2cccnc2[C@H](Cc2cc(F)cc(F)c2)NC(=O)Cn2nc3c(c2C(F)F)C2CC2C3=O)ccc1F (stereo partly drawn) [Example 220B, 5-(2-((1S)-1-(2-(3-(difluoromethyl)-5-oxo-3b,4,4a,5-tetrahydro-2H-cyclopropa[3,4]cyclopenta[1,2-c]pyrazol-2-yl)acetamido)-2-(3,5-difluorophenyl)ethyl)pyridin-3-yl)-2-fluorobenzamide] | 39200 | 70 | – |
| Cc1ccc2c(c1C)NC(=O)C2CC(=O)N[C@@H](Cc1cc(F)cc(F)c1)c1ncccc1-c1ccc(F)c(C(N)=O)c1 (stereo partly drawn) [Example 221, 5-(2-((1S)-2-(3,5-difluorophenyl)-1-(2-(6,7-dimethyl-2-oxoindolin-3-yl)acetamido)ethyl)pyridin-3-yl)-2-fluorobenzamide] | 40500 | 1 | – |
| NC(=O)c1cc(-c2cccnc2[C@H](Cc2cccc(F)c2)NC(=O)Cn2nc(C(F)(F)F)cc2Br)ccc1F [Example 222B, (S)-5-(2-(1-(2-(5-bromo-3-(trifluoromethyl)-1H-pyrazol-1-yl)acetamido)-2-(3-fluorophenyl)ethyl)pyridin-3-yl)-2-fluorobenzamide] | 25600 | 21 | – |
| CC(C)Oc1ccc(-c2cccnc2[C@H](Cc2cc(F)cc(F)c2)NC(=O)Cn2nc(C(F)F)c3c2C(F)(F)C2CC32)cc1 (stereo partly drawn) [Example 224, 2-(3-(difluoromethyl)-5,5-difluoro-3b,4,4a,5-tetrahydro-1H-cyclopropa[3,4]cyclopenta[1,2-c]pyrazol-1-yl)-N—((S)-2-(3,5-difluorophenyl)-1-(3-(4-isopropoxyphenyl)pyridin-2-yl)ethyl)acetamide] | 20400 | 17 | – |
| NC(=O)c1cccc(-c2cccnc2[C@H](Cc2cc(F)cc(F)c2)NC(=O)C2CC23C(=O)Nc2ccccc23)c1 (stereo partly drawn) [Example 225, N—((S)-1-(3-(3-carbamoylphenyl)pyridin-2-yl)-2-(3,5-difluorophenyl)ethyl)-2′-oxospiro[cyclopropane-1,3′-indoline]-2-carboxamide] | 23000 | 15 | – |
| NC(=O)c1cccc(-c2cccnc2[C@H](Cc2cc(F)cc(F)c2)NC(=O)Cn2ccc3cnc(N)nc32)c1 [Example 226C, (S)-3-(2-(1-(2-(2-amino-7H-pyrrolo[2,3-d]pyrimidin-7-yl)acetamido)-2-(3,5-difluorophenyl)ethyl)pyridin-3-yl)benzamide] | > 53000 | 0 | – |
| CC(C)(C)OC(=O)N1Cc2c(C(F)(F)F)nn(CC(=O)N[C@@H](Cc3cc(F)cc(F)c3)c3ncccc3-c3ccc(F)c(C(N)=O)c3)c2C1 [Example 227, (S)-tert-butyl 1-(2-((1-(3-(3-carbamoyl-4-fluorophenyl)pyridin-2-yl)-2-(3,5-difluorophenyl)ethyl)amino)-2-oxoethyl)-3-(trifluoromethyl)-4,6-dihydropyrrolo[3,4-c]pyrazole-5(1H)-carboxylate] | 14300 | 1 | – |
